Reference: ChEMBL document CHEMBL1201862, “PubChem BioAssay data set” (2004)
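Results reflect a 48-hour exposure of cells in 96-well plates to compound at five concentrations. GI50 is the concentration that inhibits growth by half.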 The source made the active and inactive calls. Rule as the data show it: active = GI50 up to about 1.1 µM and inactive = higher.

How the values were obtained:
Experiment in all cases: NCI-60 cell line screen, 48 h
MDA-MB-231 = system: MDA-MB-231
NCI-H23 = system: NCI-H23
MDA-MB-435 = system: MDA-MB-435
BT-549 = system: BT-549
EKVX = system: EKVX
HL-60 = system: HL-60
SF-295 = system: SF-295
HOP-62 = system: HOP-62
SNB-75 = system: SNB-75
786-0 = system: 786-0
HCT-15 = system: HCT-15
SK-OV-3 = system: SK-OV-3
M14 = system: M14
PC-3 = system: PC-3
SF-268 = system: SF-268
UO-31 = system: UO-31
A498 = system: A498
OVCAR-4 = system: OVCAR-4
CCRF-CEM = system: CCRF-CEM
CAKI-1 = system: CAKI-1
MDA-N = system: MDA-N
SK-MEL-28 = system: SK-MEL-28
TK-10 = system: TK-10
NCI-H460 = system: NCI-H460
Hs-578T = system: Hs-578T
LOX IMVI = system: LOX IMVI
UACC-257 = system: UACC-257
HOP-92 = system: HOP-92
OVCAR-3 = system: OVCAR-3
NCI/ADR-RES = system: NCI/ADR-RES
ACHN = system: ACHN
SNB-19 = system: SNB-19
T47D = system: T47D
SK-MEL-5 = system: SK-MEL-5
IGROV-1 = system: IGROV-1
SK-MEL-2 = system: SK-MEL-2
HT-29 = system: HT-29
RXF 393 = system: RXF 393
U-251 = system: U-251
KM12 = system: KM12
UACC-62 = system: UACC-62
MCF7 = system: MCF7
OVCAR-8 = system: OVCAR-8
OVCAR-5 = system: OVCAR-5
NCI-H226 = system: NCI-H226
MOLT-4 = system: MOLT-4
SW-620 = system: SW-620
SF-539 = system: SF-539
HCT-116 = system: HCT-116
NCI-H522 = system: NCI-H522
SN12C = system: SN12C
A549 = system: A549
COLO 205 = system: COLO 205
DU-145 = system: DU-145
Malme-3M = system: Malme-3M
RPMI-8226 = system: RPMI-8226
SR = system: SR
K562 = system: K562
HCC 2998 = system: HCC 2998

Measured: GI50

O=[N+]([O-])c1ccc(NS(=O)(=O)C(F)(F)F)cc1
> 100 µM: HCT-15
inactive: MDA-MB-231 > 100 µM | NCI-H23 > 100 µM | MDA-MB-435 > 100 µM | BT-549 > 100 µM | EKVX > 100 µM | HL-60 > 100 µM | SF-295 > 100 µM | HOP-62 > 100 µM | SNB-75 > 100 µM | 786-0 > 100 µM | SK-OV-3 > 100 µM | M14 > 100 µM | PC-3 > 100 µM | SF-268 > 100 µM | UO-31 > 100 µM | A498 > 100 µM | OVCAR-4 > 100 µM | CCRF-CEM 92.9 µM | CAKI-1 > 100 µM | MDA-N > 100 µM | SK-MEL-28 > 100 µM | TK-10 > 100 µM | NCI-H460 > 100 µM | Hs-578T > 100 µM | LOX IMVI > 100 µM | UACC-257 > 100 µM | HOP-92 36.6 µM | OVCAR-3 > 100 µM | NCI/ADR-RES > 100 µM | ACHN > 100 µM | SNB-19 > 100 µM | T47D > 100 µM | SK-MEL-5 > 100 µM | IGROV-1 85.1 µM | SK-MEL-2 > 100 µM | HT-29 > 100 µM | RXF 393 > 100 µM | U-251 > 100 µM | KM12 > 100 µM | UACC-62 > 100 µM | MCF7 > 100 µM | OVCAR-8 > 100 µM | OVCAR-5 > 100 µM | NCI-H226 > 100 µM | MOLT-4 > 100 µM | SW-620 > 100 µM | SF-539 > 100 µM | HCT-116 > 100 µM | NCI-H522 22.1 µM | SN12C > 100 µM | A549 > 100 µM | COLO 205 > 100 µM | DU-145 > 100 µM

CCOP(=O)(CC1OC(CO)C(O)C1O)OCC (centres undefined)
> 100 µM: HCT-15
inactive: MDA-MB-231 > 100 µM | NCI-H23 > 46.7 µM | MDA-MB-435 > 100 µM | BT-549 > 100 µM | EKVX > 100 µM | Malme-3M > 100 µM | HL-60 > 100 µM | SF-295 > 100 µM | HOP-62 > 100 µM | SNB-75 > 100 µM | 786-0 > 100 µM | SK-OV-3 > 100 µM | RPMI-8226 > 100 µM | M14 > 100 µM | PC-3 > 100 µM | SF-268 > 100 µM | UO-31 > 100 µM | A498 > 100 µM | OVCAR-4 > 100 µM | CCRF-CEM > 100 µM | CAKI-1 > 100 µM | MDA-N > 100 µM | SK-MEL-28 > 100 µM | TK-10 > 100 µM | SR > 100 µM | NCI-H460 > 100 µM | Hs-578T > 100 µM | LOX IMVI > 100 µM | UACC-257 > 100 µM | HOP-92 > 100 µM | OVCAR-3 > 100 µM | ACHN > 100 µM | SNB-19 > 100 µM | T47D > 100 µM | SK-MEL-5 > 100 µM | IGROV-1 > 100 µM | SK-MEL-2 > 100 µM | RXF 393 > 100 µM | U-251 > 100 µM | KM12 > 100 µM | UACC-62 > 100 µM | MCF7 > 100 µM | OVCAR-5 > 100 µM | MOLT-4 > 100 µM | K562 > 100 µM | SW-620 > 100 µM | SF-539 > 100 µM | HCT-116 > 100 µM | NCI-H522 > 100 µM | SN12C > 100 µM | A549 > 100 µM | HCC 2998 > 100 µM | COLO 205 > 100 µM | DU-145 > 100 µM
